Laboratory results taken from the supplement of paper PMC13380429.
± gives the standard deviation of the averaged measurements.

Columns and labels:
Conditions in all cases: 72 h
Caco-2 [1] = assay: drug sensitivity score (DSS) for viability; higher = more toxic; extreme values may be limits of the assay
U2OS [2] = assay: as above
Vero E6 [3] = assay: as above
HepG2 [4] = assay: as above
Calu-3 [5] = assay: as above
Caco-2 [6] = assay: relative viability EC50 (midpoint between 100% and the lowest measured viability); higher = less toxic
U2OS [7] = assay: as above
Vero E6 [8] = assay: as above
HepG2 [9] = assay: as above
Calu-3 [10] = assay: as above
Caco-2 [11] = assay: cell viability relative to DMSO; higher = less toxic
U2OS [12] = assay: as above
Vero E6 [13] = assay: as above
HepG2 [14] = assay: as above
Calu-3 [15] = assay: as above

| Structure (SMILES) | drug sensitivity score (Caco-2 [1]) | drug sensitivity score (U2OS [2]) | drug sensitivity score (Vero E6 [3]) | drug sensitivity score (HepG2 [4]) | drug sensitivity score (Calu-3 [5]) | relative viability EC50 (Caco-2 [6]) [µM] | relative viability EC50 (U2OS [7]) [µM] | relative viability EC50 (Vero E6 [8]) [µM] | relative viability EC50 (HepG2 [9]) [µM] | relative viability EC50 (Calu-3 [10]) [µM] | cell viability (Caco-2 [11]; 1 nM) [%] | cell viability (Caco-2 [11]; 10 nM) [%] | cell viability (Caco-2 [11]; 100 nM) [%] | cell viability (Caco-2 [11]; 1000 nM) [%] | cell viability (Caco-2 [11]; 10000 nM) [%] | cell viability (U2OS [12]; 1 nM) [%] | cell viability (U2OS [12]; 10 nM) [%] | cell viability (U2OS [12]; 100 nM) [%] | cell viability (U2OS [12]; 1000 nM) [%] | cell viability (U2OS [12]; 10000 nM) [%] | cell viability (Vero E6 [13]; 1 nM) [%] | cell viability (Vero E6 [13]; 10 nM) [%] | cell viability (Vero E6 [13]; 100 nM) [%] | cell viability (Vero E6 [13]; 1000 nM) [%] | cell viability (Vero E6 [13]; 10000 nM) [%] | cell viability (HepG2 [14]; 1 nM) [%] | cell viability (HepG2 [14]; 10 nM) [%] | cell viability (HepG2 [14]; 100 nM) [%] | cell viability (HepG2 [14]; 1000 nM) [%] | cell viability (HepG2 [14]; 10000 nM) [%] | cell viability (Calu-3 [15]; 1 nM) [%] | cell viability (Calu-3 [15]; 10 nM) [%] | cell viability (Calu-3 [15]; 100 nM) [%] | cell viability (Calu-3 [15]; 1000 nM) [%] | cell viability (Calu-3 [15]; 10000 nM) [%] |
| --- | --- | --- | --- | --- | --- | --- | --- | --- | --- | --- | --- | --- | --- | --- | --- | --- | --- | --- | --- | --- | --- | --- | --- | --- | --- | --- | --- | --- | --- | --- | --- | --- | --- | --- | --- |
| NC(=O)OCC(O)COc1ccc(Cl)cc1 (stereo not given) [chlorphensin-carbamate] | 0 | 0 | 0 | 0 | 0 | > 10 | > 10 | > 10 | > 10 | > 10 | 100 | 109 | 92 | 117 | 93.3 | 99.6 | 99 | 96.3 | 98.2 | 94.3 | 110 | 95.5 | 105 | 96.5 | 103 | 91.7 | 97 | 100 | 100 | 100 | 92.6 | 96.3 | 91.6 | 85.5 | 94.2 |
| Oc1cc(O)c2c(c1)O[C@H](c1ccc(O)c(O)c1)[C@@H](O)C2 [cianidanol] | 0 | 0 | 0 | 0 | 0 | > 10 | > 10 | > 10 | > 10 | > 10 | 89.8 | 89.6 | 92.6 | 90.4 | 92.6 | 93.9 | 96.2 | 95.6 | 98.5 | 100 | 98 | 88.5 | 103 | 94.5 | 113 | 100 | 99.8 | 84.6 | 102 | 109 | 96.9 | 101 | 97.4 | 107 | 101 |
| CC(C(=O)O)c1ccc2c(c1)Cc1ccccc1-2 (stereo not given) [cicloprofen] | 0 | 0 | 0 | 0 | 0 | > 10 | > 10 | > 10 | > 10 | > 10 | 96.8 | 97.9 | 99.9 | 102 | 107 | 96.9 | 98 | 94.4 | 98.5 | 106 | 104 | 101 | 101 | 93.8 | 101 | 101 | 93.7 | 106 | 95.7 | 112 | 95.4 | 103 | 97.6 | 93.7 | 90.5 |
| C=C[C@H]1CN2CC[C@H]1C[C@H]2[C@H](O)c1ccnc2ccccc12 [cinchonidine] | 0 | 0 | 0 | 0 | 0 | > 10 | > 10 | > 10 | > 10 | > 10 | 94.8 ± 2.2 | 98.6 ± 0.42 | 99.8 ± 11 | 114 ± 16 | 116 ± 5.9 | 98.35 ± 0.071 | 103 ± 2 | 97.85 ± 0.78 | 102 ± 1.2 | 99.5 ± 4.2 | 104 ± 4 | 105 ± 5.8 | 106 ± 0.21 | 95.55 ± 0.64 | 97.1 ± 1.7 | 104 ± 7.8 | 94.5 ± 1.2 | 97.05 ± 0.35 | 92 ± 0.42 | 94.2 ± 2.8 | 95.2 ± 1.6 | 102 ± 2.5 | 100 ± 4 | 98.7 ± 5 | 106 ± 5.8 |
| CN1CC(=O)NC1=N [creatinine] | 0 | 0 | 0 | 0 | 0.2 | > 10 | > 10 | > 10 | > 10 | > 10 | 95.8 | 96.6 | 96.9 | 102 | 99.1 | 100 | 99.5 | 97.3 | 98.4 | 95.5 | 100 | 97 | 93.9 | 96.1 | 98.7 | 97.4 | 97.3 | 104 | 90.9 | 103 | 97.2 | 99.7 | 85 | 95.7 | 87.5 |
| CN(C)CCC=C1c2ccccc2C=Cc2ccccc21 [cyclobenzaprine] | 0 | 0 | 0 | 0 | 0 | > 10 | > 10 | > 10 | > 10 | > 10 | 102 | 108 | 101 | 98.8 | 114 | 102 | 98.4 | 103 | 101 | 104 | 100 | 99.6 | 92.2 | 107 | 101 | 111 | 97.9 | 104 | 113 | 103 | 98.8 | 99.3 | 94.8 | 99 | 101 |
| Nc1nc(=O)n([C@H]2C[C@H](O)[C@@H](CO)O2)cc1Cl [cytochlor] | 0.5 | 0 | 0 | 1.7 | 0.4 | > 10 | > 10 | > 10 | > 10 | > 10 | 90 | 97.6 | 77.4 | 101 | 84.6 | 97.7 | 100 | 94.4 | 100 | 92.5 | 100 | 98.5 | 98.8 | 98.3 | 98.7 | 114 | 105 | 113 | 93.5 | 76.5 | 91.6 | 98.1 | 102 | 95.7 | 86.3 |
| O=C(O)Cc1ccc(CCNS(=O)(=O)c2ccc(Cl)cc2)cc1 [daltroban] | 0 | 0 | 0 | 0 | 0 | > 10 | > 10 | > 10 | > 10 | > 10 | 104 | 104 | 94.2 | 94.1 | 94.7 | 102 | 95.3 | 99.2 | 96.1 | 99.9 | 109 | 98.4 | 109 | 107 | 89.5 | 95 | 90.9 | 99.8 | 104 | 95.7 | 101 | 95.3 | 102 | 116 | 105 |
| COc1c(-c2ccc3cc(NS(C)(=O)=O)ccc3c2)cc(-n2ccc(=O)[nH]c2=O)cc1C(C)(C)C [dasabuvir] | 0 | 0 | 0 | 0 | 0 | > 10 | > 10 | > 10 | > 10 | > 10 | 96.2 | 94.5 | 87.8 | 98.9 | 96.3 | 98.5 | 96.9 | 102 | 96.5 | 96.3 | 91.5 | 98.3 | 92.8 | 97 | 106 | 90.4 | 102 | 90.4 | 102 | 109 | 94 | 106 | 93.7 | 97.9 | 104 |
| C[N+](C)(C)CCCCCCCCCC[N+](C)(C)C [decamethonium] | 0 | 0 | 0 | 0 | 0 | > 10 | > 10 | > 10 | > 10 | > 10 | 98.1 | 93.1 | 99.1 | 99.9 | 97.4 | 98.3 | 99.8 | 94 | 97.3 | 95.5 | 101 | 98 | 102 | 95.7 | 99.7 | 102 | 99.2 | 96.2 | 93.2 | 104 | 88.3 | 114 | 95.6 | 108 | 89.3 |
| CC(=O)N[C@H](Cc1ccc2ccccc2c1)C(=O)N[C@H](Cc1ccc(Cl)cc1)C(=O)N[C@H](Cc1cccnc1)C(=O)N[C@@H](CO)C(=O)N[C@@H](Cc1ccc(NC(=O)[C@@H]2CC(=O)NC(=O)N2)cc1)C(=O)N[C@H](Cc1ccc(NC(N)=O)cc1)C(=O)N[C@@H](CC(C)C)C(=O)N[C@@H](CCCCNC(C)C)C(=O)N1CCC[C@H]1C(=O)N[C@H](C)C(N)=O [degarelix] | 0 | 0 | 0 | 0 | 0 | > 10 | > 10 | > 10 | > 10 | > 10 | 90.3 | 92.8 | 99.9 | 90.4 | 99.6 | 97.1 | 97 | 98.7 | 99.9 | 101 | 95.6 | 93.8 | 92 | 89.8 | 101 | 103 | 80.7 | 112 | 91 | 110 | 103 | 104 | 91.7 | 91.9 | 96.6 |
| CCN[C@@H](C)Cc1cccc(C(F)(F)F)c1 [dexfenfluramine] | 0 | 0 | 0 | 0 | 0 | > 10 | > 10 | > 10 | > 10 | > 10 | 105 | 114 | 89.8 | 108 | 106 | 93.5 | 96.7 | 96.1 | 94.3 | 101 | 99.4 | 92.7 | 100 | 90.7 | 94.7 | 106 | 93.7 | 105 | 82.9 | 97.5 | 97.4 | 109 | 105 | 118 | 113 |
| COC(=O)C1=C(C)NC(C)=C(C(=O)OCCCN2CCC(c3ccccc3)(c3ccccc3)CC2)[C@@H]1c1cccc([N+](=O)[O-])c1 [dexniguldipine] | 4.65 ± 0.49 | 5.3 ± 2.3 | 4.2 | 4.5 ± 0.14 | 4.95 ± 1.8 | 2.01 | 2.61 | 2.39 | 3.26 | 3.03 | 99.8 ± 0.28 | 100 ± 0.71 | 97.7 ± 7.6 | 91.4 ± 0.42 | 40.8 ± 7.7 | 102 ± 2.6 | 102 ± 2.5 | 100.8 ± 0.21 | 94.3 ± 7.8 | 20.8 ± 17 | 94 ± 1.9 | 99.7 ± 2.5 | 95 ± 3.6 | 94.35 ± 0.92 | 39.5 ± 2.3 | 102 ± 14 | 101 ± 3.4 | 94.7 ± 3.8 | 102 ± 3 | 16.8 ± 2 | 103.7 ± 0.42 | 94 ± 2.3 | 104.1 ± 0.71 | 99.2 ± 7.6 | 15.8 ± 14 |
| O=C(NC(O)C(Cl)(Cl)Cl)NC(O)C(Cl)(Cl)Cl (stereo not given) [dicloralurea] | 0 | 0 | 0 | 0 | 0 | > 10 | > 10 | > 10 | > 10 | > 10 | 96.6 | 114 | 111 | 102 | 90.1 | 97 | 92.4 | 97.6 | 94.4 | 103 | 97.6 | 101 | 95.2 | 92.4 | 103 | 96.2 | 107 | 109 | 104 | 97.4 | 94.1 | 96.2 | 102 | 86.9 | 99.5 |
